Where two headings read alike, the source gives them in different places.
What was measured:
E. coli rEcPepN = E. coli rEcPepN (Escherichia coli, UniProt P04825); assay: rEcPepN inhibition, Leu-pNA substrate, Dixon method; format: biochemical
Method: Enzyme activity assays were carried out in 10 mM Tris-HCl buffer at pH 7.5 with 150 mM NaCl, enzyme, 100 µM substrate (Leu-pNA) in a 100 μL reaction at 37 °C. The absorbance was read at 405 nm. Concentrations ranging from 1 nM to 100 μM of inhibitors (dissolved in DMSO) were incubated with each of the enzymes ([…]) for 30 min at 37 °C in a 96 well plate. After addition of the substrate, immediate increase in absorption was measured. All inhibition assays were performed in triplicates and initial velocities were measured. Percentage inhibition and log values of inhibitor concentrations were plotted using SigmaPlot to determine IC50 values. Ki values were determined by the Dixon method. The assay consists of reaction buffer, enzyme and varied concentrations of Leu-pNA (25, 50, 100, 200 and 400 µM). […] Data were plotted as 1/rate versus inhibitor concentration for each substrate concentration and a linear fit was calculated by non-linear regression using SigmaPlot12.5. All the reactions were performed in triplicates, SD values were reported.

[1] = molecular target: T1, human endoplasmic reticulum aminopeptidase 1 (rHsERAP1) (Homo sapiens, UniProt Q9NZ08); assay: rHsERAP1 inhibition, L-AMC fluorigenic substrate; format: biochemical; conditions: 50 µM L-AMC
T1 construct: made in house; host or cells: Hi5 insect cells (baculovirus produced in sf9)
T1 sequence (Q9NZ08 whole entry): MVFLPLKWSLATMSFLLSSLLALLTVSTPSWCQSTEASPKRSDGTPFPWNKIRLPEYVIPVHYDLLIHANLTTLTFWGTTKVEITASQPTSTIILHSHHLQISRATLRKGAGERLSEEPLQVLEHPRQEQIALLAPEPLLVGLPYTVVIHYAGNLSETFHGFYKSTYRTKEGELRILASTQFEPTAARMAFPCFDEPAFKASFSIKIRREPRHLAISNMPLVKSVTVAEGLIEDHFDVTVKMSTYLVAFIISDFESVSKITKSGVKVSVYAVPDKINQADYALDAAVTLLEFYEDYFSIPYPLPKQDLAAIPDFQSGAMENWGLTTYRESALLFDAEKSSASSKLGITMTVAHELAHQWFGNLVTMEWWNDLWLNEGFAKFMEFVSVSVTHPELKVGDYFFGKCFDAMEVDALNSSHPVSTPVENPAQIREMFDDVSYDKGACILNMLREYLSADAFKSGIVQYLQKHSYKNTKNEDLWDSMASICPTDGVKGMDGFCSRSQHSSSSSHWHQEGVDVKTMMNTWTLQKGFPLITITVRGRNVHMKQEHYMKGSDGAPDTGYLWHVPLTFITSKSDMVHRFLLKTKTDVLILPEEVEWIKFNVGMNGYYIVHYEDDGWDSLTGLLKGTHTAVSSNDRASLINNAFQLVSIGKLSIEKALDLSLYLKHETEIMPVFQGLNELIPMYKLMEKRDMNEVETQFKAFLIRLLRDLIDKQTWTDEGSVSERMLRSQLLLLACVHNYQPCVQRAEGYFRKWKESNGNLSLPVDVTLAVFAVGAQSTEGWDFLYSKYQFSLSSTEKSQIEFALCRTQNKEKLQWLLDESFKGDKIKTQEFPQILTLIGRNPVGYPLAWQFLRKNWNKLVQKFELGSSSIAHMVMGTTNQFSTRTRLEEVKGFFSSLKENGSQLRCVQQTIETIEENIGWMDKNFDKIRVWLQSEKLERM
Method: (§1) The enzymatic activity of HsERAP1, HsERAP2 and HsIRAP was determined by following the time-dependent increase in fluorescence at 460 nm (excitation: 380 nm) of the fluorigenic substrates L-Leucine-7-amido-4-methyl coumarin (L-AMC; Sigma, Darmstatd, Germany) for HsERAP1 and HsIRAP and L-arginyl-7-amido-4-methyl coumarin (R-AMC; Sigma) for HsERAP2. […] The reaction was followed for 10 min at room temperature and the remaining enzymatic activity was calculated by measuring the slope of the time course.

[2] = molecular target: T2, human endoplasmic reticulum aminopeptidase 2 (rHsERAP2) (Homo sapiens, UniProt Q6P179); assay: rHsERAP2 inhibition, R-AMC fluorigenic substrate; format: biochemical; conditions: 50 µM R-AMC
T2 construct: made in house; host or cells: Hi5 insect cells (baculovirus produced in sf9)
T2 sequence (Q6P179 whole entry): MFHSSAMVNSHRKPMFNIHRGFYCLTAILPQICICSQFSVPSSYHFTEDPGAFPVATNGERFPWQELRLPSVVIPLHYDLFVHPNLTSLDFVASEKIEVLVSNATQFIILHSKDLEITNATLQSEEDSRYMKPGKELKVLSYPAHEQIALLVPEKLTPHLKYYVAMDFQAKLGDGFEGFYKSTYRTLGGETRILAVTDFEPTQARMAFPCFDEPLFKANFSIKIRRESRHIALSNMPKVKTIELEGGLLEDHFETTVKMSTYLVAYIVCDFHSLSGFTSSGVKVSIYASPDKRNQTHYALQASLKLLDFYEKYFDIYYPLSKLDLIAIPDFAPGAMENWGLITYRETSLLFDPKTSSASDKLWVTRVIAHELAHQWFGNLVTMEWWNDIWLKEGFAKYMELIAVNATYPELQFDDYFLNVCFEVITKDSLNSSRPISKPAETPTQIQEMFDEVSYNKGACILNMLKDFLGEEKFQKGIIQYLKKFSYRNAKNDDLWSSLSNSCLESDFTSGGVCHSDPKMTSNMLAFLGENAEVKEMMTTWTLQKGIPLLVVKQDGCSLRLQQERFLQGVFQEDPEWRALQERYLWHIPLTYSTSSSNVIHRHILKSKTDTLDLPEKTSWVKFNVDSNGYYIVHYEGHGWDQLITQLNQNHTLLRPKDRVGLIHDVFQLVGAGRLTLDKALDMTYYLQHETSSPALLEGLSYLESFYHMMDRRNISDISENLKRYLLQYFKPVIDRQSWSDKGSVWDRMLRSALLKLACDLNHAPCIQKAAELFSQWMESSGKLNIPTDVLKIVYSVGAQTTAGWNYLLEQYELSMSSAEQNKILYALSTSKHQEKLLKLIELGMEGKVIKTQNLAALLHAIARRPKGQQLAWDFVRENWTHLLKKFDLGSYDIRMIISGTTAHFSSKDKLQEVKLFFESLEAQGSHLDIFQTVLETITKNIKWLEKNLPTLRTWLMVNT
Method: as §1

[3] = molecular target: human puromycine sensitive aminopeptidase (rHsPSA) (Homo sapiens, UniProt P55786); assay: rHsPSA inhibition, Leu-pNA substrate, Dixon method; format: biochemical; conditions: triplicate, SD
human puromycine sensitive aminopeptidase (rHsPSA), sequence (P55786 whole entry): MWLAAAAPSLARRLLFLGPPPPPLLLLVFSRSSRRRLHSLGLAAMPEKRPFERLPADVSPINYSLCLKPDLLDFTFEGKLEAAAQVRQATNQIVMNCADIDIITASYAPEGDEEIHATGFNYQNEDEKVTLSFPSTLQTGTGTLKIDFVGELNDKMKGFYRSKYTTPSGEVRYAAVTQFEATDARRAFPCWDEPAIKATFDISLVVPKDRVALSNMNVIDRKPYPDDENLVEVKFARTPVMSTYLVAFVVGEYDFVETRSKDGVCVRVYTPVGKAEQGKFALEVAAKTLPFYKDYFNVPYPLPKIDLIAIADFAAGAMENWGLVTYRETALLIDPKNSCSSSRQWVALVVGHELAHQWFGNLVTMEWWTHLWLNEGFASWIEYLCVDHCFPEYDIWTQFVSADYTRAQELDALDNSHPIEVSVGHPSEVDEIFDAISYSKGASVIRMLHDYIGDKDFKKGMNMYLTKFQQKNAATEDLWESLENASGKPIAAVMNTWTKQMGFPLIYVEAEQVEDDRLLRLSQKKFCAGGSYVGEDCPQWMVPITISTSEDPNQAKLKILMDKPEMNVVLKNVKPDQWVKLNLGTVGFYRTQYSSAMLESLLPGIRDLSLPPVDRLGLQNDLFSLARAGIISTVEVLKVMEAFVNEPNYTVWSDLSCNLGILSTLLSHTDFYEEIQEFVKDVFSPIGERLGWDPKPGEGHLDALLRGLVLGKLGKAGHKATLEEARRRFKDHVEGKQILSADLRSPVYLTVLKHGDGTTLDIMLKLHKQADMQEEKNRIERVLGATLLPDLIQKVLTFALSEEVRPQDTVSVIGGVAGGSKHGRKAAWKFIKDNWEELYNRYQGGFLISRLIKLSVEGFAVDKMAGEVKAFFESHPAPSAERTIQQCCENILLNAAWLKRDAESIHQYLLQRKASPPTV
Method: Enzyme activity assays were carried out in 10 mM Tris-HCl buffer at pH 7.5 with 150 mM NaCl, enzyme, 100 µM substrate (Leu-pNA) in a 100 μL reaction at 37 °C. The absorbance was read at 405 nm. Concentrations ranging from 1 nM to 100 μM of inhibitors (dissolved in DMSO) were incubated with each of the enzymes ([…]) for 30 min at 37 °C in a 96 well plate. After addition of the substrate, immediate increase in absorption was measured. All inhibition assays were performed in triplicates and initial velocities were measured. Percentage inhibition and log values of inhibitor concentrations were plotted using SigmaPlot to determine IC50 values. Ki values were determined by the Dixon method. The assay consists of reaction buffer, enzyme and varied concentrations of Leu-pNA (25, 50, 100, 200 and 400 µM). […]. All the reactions were performed in triplicates, SD values were reported.

pAPN from porcine kidney = conditions: Dixon plots; cited from earlier work
P. falciparum rPfAM1 = molecular target: T3, P. falciparum rPfAM1 (Plasmodium falciparum, UniProt O96935); parameters: method as in PMID 28934959; conditions: read-out: Ki rPfAM1; cited from earlier work
T3 construct: made in house; host or cells: Escherichia coli Rosetta 2 (DE3)
T3 sequence (O96935 1-1085): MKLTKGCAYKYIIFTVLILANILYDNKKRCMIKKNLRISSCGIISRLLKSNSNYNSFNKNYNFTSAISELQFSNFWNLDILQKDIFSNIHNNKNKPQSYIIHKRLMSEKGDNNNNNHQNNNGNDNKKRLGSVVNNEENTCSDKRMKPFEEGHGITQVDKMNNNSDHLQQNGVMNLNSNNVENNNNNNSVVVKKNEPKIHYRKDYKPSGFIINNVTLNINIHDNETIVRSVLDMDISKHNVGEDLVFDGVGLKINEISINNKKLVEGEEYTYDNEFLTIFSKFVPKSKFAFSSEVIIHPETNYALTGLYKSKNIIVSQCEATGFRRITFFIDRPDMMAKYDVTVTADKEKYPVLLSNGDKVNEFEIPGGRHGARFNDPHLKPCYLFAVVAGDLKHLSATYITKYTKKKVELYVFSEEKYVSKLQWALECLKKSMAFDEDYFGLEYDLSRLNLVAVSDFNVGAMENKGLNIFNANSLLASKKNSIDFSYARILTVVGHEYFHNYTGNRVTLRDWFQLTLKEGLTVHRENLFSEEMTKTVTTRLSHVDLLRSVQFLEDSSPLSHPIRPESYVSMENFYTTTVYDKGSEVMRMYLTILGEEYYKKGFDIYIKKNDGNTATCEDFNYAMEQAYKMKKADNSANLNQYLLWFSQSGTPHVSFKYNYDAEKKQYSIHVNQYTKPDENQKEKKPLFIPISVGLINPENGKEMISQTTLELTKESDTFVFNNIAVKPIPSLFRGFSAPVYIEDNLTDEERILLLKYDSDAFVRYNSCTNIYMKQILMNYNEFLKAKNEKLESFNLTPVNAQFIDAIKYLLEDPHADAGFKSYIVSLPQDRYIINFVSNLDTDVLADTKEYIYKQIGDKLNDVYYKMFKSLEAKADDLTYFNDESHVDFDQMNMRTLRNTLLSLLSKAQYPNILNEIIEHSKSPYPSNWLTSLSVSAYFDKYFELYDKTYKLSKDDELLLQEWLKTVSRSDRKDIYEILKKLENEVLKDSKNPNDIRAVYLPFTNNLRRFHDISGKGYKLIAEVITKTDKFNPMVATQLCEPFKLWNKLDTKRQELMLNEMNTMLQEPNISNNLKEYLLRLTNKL

[4] = molecular target: human leukotriene A4 hydrolase (rHsLTA4H); parameters: method as in PMID 21843945; conditions: ref 58; cited from earlier work
P. falciparum rPfAM17 = molecular target: T4, P. falciparum rPfAM17 (Plasmodium falciparum, UniProt Q8IL11); parameters: method as in PMID 28934959; conditions: ref 69; cited from earlier work
T4 construct: made in house; host or cells: Escherichia coli Rosetta 2 (DE3)
T4 sequence (Q8IL11 1-605): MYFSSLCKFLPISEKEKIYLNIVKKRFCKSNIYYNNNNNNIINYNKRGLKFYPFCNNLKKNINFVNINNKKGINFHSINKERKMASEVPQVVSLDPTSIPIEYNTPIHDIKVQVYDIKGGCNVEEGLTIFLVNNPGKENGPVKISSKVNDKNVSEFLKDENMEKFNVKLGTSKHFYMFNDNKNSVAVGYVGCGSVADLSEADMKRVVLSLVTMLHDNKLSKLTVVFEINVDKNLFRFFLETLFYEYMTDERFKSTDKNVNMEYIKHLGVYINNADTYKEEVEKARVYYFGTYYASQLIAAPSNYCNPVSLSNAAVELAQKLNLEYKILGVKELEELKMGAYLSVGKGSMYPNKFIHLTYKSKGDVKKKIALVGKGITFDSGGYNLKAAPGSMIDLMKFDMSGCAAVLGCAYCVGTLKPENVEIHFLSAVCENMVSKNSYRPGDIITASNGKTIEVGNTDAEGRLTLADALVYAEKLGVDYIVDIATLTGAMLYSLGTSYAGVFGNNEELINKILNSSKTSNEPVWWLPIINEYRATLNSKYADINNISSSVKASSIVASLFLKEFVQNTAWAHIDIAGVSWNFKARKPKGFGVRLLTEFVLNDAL

[5] = molecular target: aminopeptidase from A. proteolytica (AAP); parameters: method as in PMID 21843945; conditions: ref 58; cited from earlier work
[6] = Octanol/water partition coefficient (logD7.4) by reversed-phase HPLC; conditions: pH 7.4
Method: The flow was 0.9 mL/min. The aminobenzosuberone derivatives were dissolved at 0.4 µM in methanol. The standards were also dissolved in methanol. Column void volume was estimated from the retention time of uracil, which was included as a non-retained internal reference with each injection.

[7] = molecular target: human arginyl aminopeptidase B (HsAPB); conditions: cited from earlier work
[8] = molecular target: mammalian aminopeptidase N (mAPN); conditions: cited from earlier work
[9] = molecular target: human endoplasmic reticulum aminopeptidase 1 (HsERAP1); conditions: ref 41; cited from earlier work
[10] = molecular target: human puromycine sensitive aminopeptidase (HsPSA); conditions: ref 37; cited from earlier work
[11] = test system: E. coli (EcPepN) M1 aminopeptidase; conditions: ref 43; cited from earlier work
[12] = molecular target: P. falciparum (PfAM1) M1 aminopeptidase; conditions: ref 44; cited from earlier work
[13] = molecular target: bimetallic aminopeptidase from A. proteolytica (AAP); parameters: method as in PMID 21292493; conditions: ref 42; cited from earlier work
[14] = molecular target: mammalian cytosolic leucine aminopeptidase (mLAPc); conditions: cited from earlier work
[15] = molecular target: P. falciparum M17 aminopeptidase (PfAM17); conditions: ref 45; cited from earlier work
[16] = molecular target: human Leucyl-cystinyl aminopeptidase (HsIRAP); conditions: ref 48; cited from earlier work

E. coli rEcPepN, sequence (P04825 whole entry): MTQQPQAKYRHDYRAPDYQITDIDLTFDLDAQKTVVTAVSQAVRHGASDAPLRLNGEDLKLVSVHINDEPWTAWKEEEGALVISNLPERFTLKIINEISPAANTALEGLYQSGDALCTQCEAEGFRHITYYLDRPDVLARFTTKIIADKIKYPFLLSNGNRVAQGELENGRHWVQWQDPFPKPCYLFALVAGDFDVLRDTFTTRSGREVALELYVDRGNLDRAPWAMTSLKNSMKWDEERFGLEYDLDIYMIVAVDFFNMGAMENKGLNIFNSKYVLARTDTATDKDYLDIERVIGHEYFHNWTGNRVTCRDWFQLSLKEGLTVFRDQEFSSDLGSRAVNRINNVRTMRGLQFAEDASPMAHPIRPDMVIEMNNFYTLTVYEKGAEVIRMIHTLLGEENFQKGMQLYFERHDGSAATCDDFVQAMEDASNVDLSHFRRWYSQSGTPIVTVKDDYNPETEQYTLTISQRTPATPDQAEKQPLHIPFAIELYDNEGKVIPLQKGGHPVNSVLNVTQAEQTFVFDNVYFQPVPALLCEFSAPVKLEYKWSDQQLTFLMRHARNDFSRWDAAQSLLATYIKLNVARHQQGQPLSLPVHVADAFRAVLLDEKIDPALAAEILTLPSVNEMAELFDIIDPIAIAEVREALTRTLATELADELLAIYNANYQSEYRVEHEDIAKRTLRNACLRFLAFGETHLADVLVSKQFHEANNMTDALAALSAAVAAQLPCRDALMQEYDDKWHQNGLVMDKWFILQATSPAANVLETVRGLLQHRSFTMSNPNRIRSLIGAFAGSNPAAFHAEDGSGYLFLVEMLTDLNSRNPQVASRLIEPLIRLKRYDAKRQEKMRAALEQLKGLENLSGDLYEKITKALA

**Q.** Which results are given for NC1CCc2cccc(-c3ccccc3)c2CC1=O (centres unmarked) [21c]?
**A.** Ki (E. coli rEcPepN): 160 ± 12 nM; IC50 [1]: 63000 ± 3000 nM; IC50 [2]: 18000 ± 1300 nM; Ki [3]: 50 ± 4 nM; Ki (pAPN from porcine kidney): 7 nM; Ki (P. falciparum rPfAM1): 50 ± 5 nM; Ki [4]: 19000 nM; Ki (P. falciparum rPfAM17): > 100000 nM; Ki [5]: 28000 nM; chromatographic logD [6]: 2.12

**Q.** Which results are given for CC(C)C[C@H](NC(=O)[C@@H](O)[C@H](N)Cc1ccccc1)C(=O)O [compound 1, Bestatin]?
**A.** Ki ([7]; ref 38): 6000 nM; Ki ([7]; ref 39): 14 nM; IC50 ([8]; ref 37): 300 nM; Ki ([8]; ref 40): 89000 nM; Ki [9]: 11200 nM; IC50 [10]: 350 nM; IC50 [11]: 7300 nM; Ki [12]: 190 nM; Ki [13]: 1.6 nM; Ki ([14]; ref 38): 0.6 nM; Ki ([14]; ref 39): 20 nM; Ki [15]: 25 nM

**Q.** Which IC50 [16] does the source give for C#CC[C@H](CP(=O)(O)[C@@H](N)CCc1ccccc1)C(=O)N[C@@H](Cc1ccccc1)C(N)=O [compound 3] here?
**A.** Its IC50 is 2 nM.
